Biological target: T1, human PAH with the R408W mutation (A375 R408W cells) (Homo sapiens, UniProt P00439, R408W)
T1 construct: expressed in transfected cells
T1 sequence (P00439 1-452 R408W): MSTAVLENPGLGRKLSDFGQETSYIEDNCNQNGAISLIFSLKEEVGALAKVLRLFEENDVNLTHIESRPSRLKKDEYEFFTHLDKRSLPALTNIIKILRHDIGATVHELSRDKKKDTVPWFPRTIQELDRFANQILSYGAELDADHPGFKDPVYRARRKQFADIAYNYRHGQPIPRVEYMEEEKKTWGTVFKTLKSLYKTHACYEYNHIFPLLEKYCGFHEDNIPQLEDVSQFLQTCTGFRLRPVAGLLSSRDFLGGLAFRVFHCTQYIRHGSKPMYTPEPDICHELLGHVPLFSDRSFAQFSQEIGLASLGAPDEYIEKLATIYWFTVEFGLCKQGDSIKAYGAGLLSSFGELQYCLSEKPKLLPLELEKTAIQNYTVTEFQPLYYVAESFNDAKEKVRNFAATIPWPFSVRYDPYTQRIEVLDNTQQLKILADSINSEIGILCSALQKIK
Assay: Cell Based Phenylalanine Flux Assay
Settings: A375 R408W cells; 24 hrs with compound, then 20 μM sepiapterin and 800 μM 13C9,15N-Phenylalanine for 4 hours; 13C-Tyrosine by LC-MS; average where tested multiple times
Procedure, shortened: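 Puromycin-selected A375 line, lentiviral hPAH R408W; cmpd 24 h, 37 °C, 5% CO2, 0.5% DMSO; then 20 μM sepiapterin + 800 μM 13C9,15N-Phe, 4 h; media extracted in 80% MeCN; 13C-Tyr by LC-MS; AC50 from 10-pt curves.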

Row | AC50 [µM] | Structure (SMILES)
1 | 0.5 to 1 | O=C(c1nnc(-c2ncccc2F)o1)N1CCc2[nH]cnc2[C@@H]1c1nc2cccc(F)c2o1 [Example 867, (R)-(4-(7-fluorobenzo[d]oxazol-2-yl)-6,7-dihydro-1H-imidazo[4,5-c]pyridin-5(4H)-yl)(5-(3-fluoropyridin-2-yl)-1,3,4-oxadiazol-2-yl)methanone]
2 | ≤ 0.5 | O=C(c1nnc(-c2ncccc2F)o1)N1CCc2[nH]cnc2[C@H]1c1nc2cccc(F)c2o1 [Example 868, (S)-(4-(7-fluorobenzo[d]oxazol-2-yl)-6,7-dihydro-1H-imidazo[4,5-c]pyridin-5(4H)-yl)(5-(3-fluoropyridin-2-yl)-1,3,4-oxadiazol-2-yl)methanone]
3 | ≤ 0.5 | Cc1cccc2nc([C@@H]3c4nc[nH]c4CCN3C(=O)c3nnc(-c4ccn(C)n4)o3)oc12 [Example 869, (S)-(5-(1-methyl-1H-pyrazol-3-yl)-1,3,4-oxadiazol-2-yl)(4-(7-methylbenzo[d]oxazol-2-yl)-6,7-dihydro-1H-imidazo[4,5-c]pyridin-5(4H)-yl)methanone]
4 | 1 to 5 | Cc1cccc2nc([C@H]3c4nc[nH]c4CCN3C(=O)c3nnc(-c4ccn(C)n4)o3)oc12 [Example 870, (R)-(5-(1-methyl-1H-pyrazol-3-yl)-1,3,4-oxadiazol-2-yl)(4-(7-methylbenzo[d]oxazol-2-yl)-6,7-dihydro-1H-imidazo[4,5-c]pyridin-5(4H)-yl)methanone]
5 | 1 to 5 | Cc1cccc2nc([C@H]3c4nc[nH]c4CCN3C(=O)c3nnc(-c4cnn(C(F)F)c4)o3)oc12 [Example 871, (R)-(5-(1-(difluoromethyl)-1H-pyrazol-4-yl)-1,3,4-oxadiazol-2-yl)(4-(7-methylbenzo[d]oxazol-2-yl)-6,7-dihydro-1H-imidazo[4,5-c]pyridin-5(4H)-yl)methanone]
6 | 0.5 to 1 | Cc1cccc2nc([C@@H]3c4nc[nH]c4CCN3C(=O)c3nnc(-c4cnn(C(F)F)c4)o3)oc12 [Example 872, (S)-(5-(1-(difluoromethyl)-1H-pyrazol-4-yl)-1,3,4-oxadiazol-2-yl)(4-(7-methylbenzo[d]oxazol-2-yl)-6,7-dihydro-1H-imidazo[4,5-c]pyridin-5(4H)-yl)methanone]
7 | ≤ 0.5 | O=C(c1ocnc1CC(F)F)N1CCc2[nH]cnc2[C@H]1c1nc2ccccc2o1 [Example 873, (S)-(4-(benzo[d]oxazol-2-yl)-6,7-dihydro-1H-imidazo[4,5-c]pyridin-5(4H)-yl)(4-(2,2-difluoroethyl)oxazol-5-yl)methanone]
8 | 0.5 to 1 | O=C(c1ocnc1CC(F)F)N1CCc2[nH]cnc2[C@@H]1c1nc2ccccc2o1 [Example 874, (R)-(4-(benzo[d]oxazol-2-yl)-6,7-dihydro-1H-imidazo[4,5-c]pyridin-5(4H)-yl)(4-(2,2-difluoroethyl)oxazol-5-yl)methanone]
9 | ≤ 0.5 | O=C(c1nnc(-c2cnn(C(F)F)c2)o1)N1CCc2[nH]cnc2[C@H]1c1nc2cccc(F)c2o1 [Example 875, (S)-(5-(1-(difluoromethyl)-1H-pyrazol-4-yl)-1,3,4-oxadiazol-2-yl)(4-(7-fluorobenzo[d]oxazol-2-yl)-6,7-dihydro-1H-imidazo[4,5-c]pyridin-5(4H)-yl)methanone]
10 | ≤ 0.5 | O=C(c1nnc(-c2cnn(C(F)F)c2)o1)N1CCc2[nH]cnc2[C@@H]1c1nc2cccc(F)c2o1 [Example 876, (R)-(5-(1-(difluoromethyl)-1H-pyrazol-4-yl)-1,3,4-oxadiazol-2-yl)(4-(7-fluorobenzo[d]oxazol-2-yl)-6,7-dihydro-1H-imidazo[4,5-c]pyridin-5(4H)-yl)methanone]
11 | 1 to 5 | COCc1ccc2c(C(=O)N3CCc4[nH]cnc4[C@H]3c3nc4cc(C)ccc4o3)cnn2c1 [Example 877, (S)-(6-(methoxymethyl)pyrazolo[1,5-a]pyridin-3-yl)(4-(5-methylbenzo[d]oxazol-2-yl)-6,7-dihydro-1H-imidazo[4,5-c]pyridin-5(4H)-yl)methanone]
12 | ≥ 5 | COCc1ccc2c(C(=O)N3CCc4[nH]cnc4[C@@H]3c3nc4cc(C)ccc4o3)cnn2c1 [Example 878, (R)-(6-(methoxymethyl)pyrazolo[1,5-a]pyridin-3-yl)(4-(5-methylbenzo[d]oxazol-2-yl)-6,7-dihydro-1H-imidazo[4,5-c]pyridin-5(4H)-yl)methanone]
13 | 1 to 5 | O=C(c1cnn(-c2ccccn2)c1)N1CCc2[nH]cnc2[C@H]1c1nc2cc(F)ccc2o1 [Example 879, (S)-(4-(5-fluorobenzo[d]oxazol-2-yl)-6,7-dihydro-1H-imidazo[4,5-c]pyridin-5(4H)-yl)(1-(pyridin-2-yl)-1H-pyrazol-4-yl)methanone]
14 | 1 to 5 | O=C(c1cnn(-c2ccccn2)c1)N1CCc2[nH]cnc2[C@@H]1c1nc2cc(F)ccc2o1 [Example 880, (R)-(4-(5-fluorobenzo[d]oxazol-2-yl)-6,7-dihydro-1H-imidazo[4,5-c]pyridin-5(4H)-yl)(1-(pyridin-2-yl)-1H-pyrazol-4-yl)methanone]
15 | 1 to 5 | Cc1nn(C)cc1-c1nnc(C(=O)N2CCc3[nH]cnc3[C@H]2c2nc3cc(F)ccc3o2)o1 [Example 881, (S)-(5-(1,3-dimethyl-1H-pyrazol-4-yl)-1,3,4-oxadiazol-2-yl)(4-(5-fluorobenzo[d]oxazol-2-yl)-6,7-dihydro-1H-imidazo[4,5-c]pyridin-5(4H)-yl)methanone]
16 | 1 to 5 | Cc1nn(C)cc1-c1nnc(C(=O)N2CCc3[nH]cnc3[C@@H]2c2nc3cc(F)ccc3o2)o1 [Example 882, (R)-(5-(1,3-dimethyl-1H-pyrazol-4-yl)-1,3,4-oxadiazol-2-yl)(4-(5-fluorobenzo[d]oxazol-2-yl)-6,7-dihydro-1H-imidazo[4,5-c]pyridin-5(4H)-yl)methanone]
17 | 0.5 to 1 | Cc1ccc2nc([C@H]3c4nc[nH]c4CCN3C(=O)c3ocnc3C(F)F)oc2c1 [Example 883, (R)-(4-(difluoromethyl)oxazol-5-yl)(4-(6-methylbenzo[d]oxazol-2-yl)-6,7-dihydro-1H-imidazo[4,5-c]pyridin-5(4H)-yl)methanone]
18 | ≤ 0.5 | Cc1ccc2nc([C@@H]3c4nc[nH]c4CCN3C(=O)c3ocnc3C(F)F)oc2c1 [Example 884, (S)-(4-(difluoromethyl)oxazol-5-yl)(4-(6-methylbenzo[d]oxazol-2-yl)-6,7-dihydro-1H-imidazo[4,5-c]pyridin-5(4H)-yl)methanone]
19 | 1 to 5 | CCn1cnnc1C(=O)N1CCc2[nH]cnc2[C@H]1c1nc2cc(F)ccc2o1 [Example 885, (S)-(4-ethyl-4H-1,2,4-triazol-3-yl)(4-(5-fluorobenzo[d]oxazol-2-yl)-6,7-dihydro-1H-imidazo[4,5-c]pyridin-5(4H)-yl)methanone]
20 | 1 to 5 | CCn1cnnc1C(=O)N1CCc2[nH]cnc2[C@@H]1c1nc2cc(F)ccc2o1 [Example 886, (R)-(4-ethyl-4H-1,2,4-triazol-3-yl)(4-(5-fluorobenzo[d]oxazol-2-yl)-6,7-dihydro-1H-imidazo[4,5-c]pyridin-5(4H)-yl)methanone]
21 | 0.5 to 1 | O=C(CCc1ncco1)N1CCc2[nH]cnc2[C@H]1c1nc2c(F)cccc2o1 [Example 887, (S)-1-(4-(4-fluorobenzo[d]oxazol-2-yl)-6,7-dihydro-1H-imidazo[4,5-c]pyridin-5(4H)-yl)-3-(oxazol-2-yl)propan-1-one]
22 | ≤ 0.5 | Cc1ccc(C)c2oc([C@@H]3c4nc[nH]c4CCN3C(=O)c3ocnc3C(F)F)nc12 [Example 890, (S)-(4-(difluoromethyl)oxazol-5-yl)(4-(4,7-dimethylbenzo[d]oxazol-2-yl)-6,7-dihydro-1H-imidazo[4,5-c]pyridin-5(4H)-yl)methanone]
23 | 1 to 5 | Cn1cnc(-c2nc(C(F)F)c(C(=O)N3CCc4[nH]cnc4[C@@H]3c3nc4cccc(F)c4o3)o2)c1 [Example 891, (R)-(4-(difluoromethyl)-2-(1-methyl-1H-imidazol-4-yl)oxazol-5-yl)(4-(7-fluorobenzo[d]oxazol-2-yl)-1,4,6,7-tetrahydro-5H-imidazo[4,5-c]pyridin-5-yl)methanone]
24 | ≤ 0.5 | Cn1cnc(-c2nc(C(F)F)c(C(=O)N3CCc4[nH]cnc4[C@H]3c3nc4cccc(F)c4o3)o2)c1 [Example 892, (S)-(4-(difluoromethyl)-2-(1-methyl-1H-imidazol-4-yl)oxazol-5-yl)(4-(7-fluorobenzo[d]oxazol-2-yl)-1,4,6,7-tetrahydro-5H-imidazo[4,5-c]pyridin-5-yl)methanone]
25 | 1 to 5 | CC(C)(O)c1ncc(C(=O)N2CCc3[nH]cnc3[C@H]2c2nc3c(F)cccc3o2)o1 [Example 893, (S)-(4-(4-fluorobenzo[d]oxazol-2-yl)-6,7-dihydro-1H-imidazo[4,5-c]pyridin-5(4H)-yl)(2-(2-hydroxypropan-2-yl)oxazol-5-yl)methanone]
26 | 1 to 5 | CC(C)(O)c1ncc(C(=O)N2CCc3[nH]cnc3[C@@H]2c2nc3c(F)cccc3o2)o1 [Example 894, (R)-(4-(4-fluorobenzo[d]oxazol-2-yl)-6,7-dihydro-1H-imidazo[4,5-c]pyridin-5(4H)-yl)(2-(2-hydroxypropan-2-yl)oxazol-5-yl)methanone]

Source: patent publication US20250171437A1 (Agios Pharmaceuticals,Inc., priority 2022, published 2025)
